Measured values as given in patent publication US7485641B2, “Substituted 3-amino-pyrrolidino-4-lactams” (Pfizer, Inc., priority 2006, dated 2009).
Counter-ions that a name gives are not always drawn.

What follows are compounds tested against T1, DPP-IV (Homo sapiens, UniProt P27487) (assay: In vitro assay for dipeptidyl peptidase inhibition). Conditions: Examples 156-162; n-value in brackets; IC50's or percent inhibition at 300 nM; read-out: DPP-IV inhibition.
T1 construct: purchased Enzyme Systems Products SPE-01
Assay type: biochemical

T1 sequence (P27487 whole entry, species assumed): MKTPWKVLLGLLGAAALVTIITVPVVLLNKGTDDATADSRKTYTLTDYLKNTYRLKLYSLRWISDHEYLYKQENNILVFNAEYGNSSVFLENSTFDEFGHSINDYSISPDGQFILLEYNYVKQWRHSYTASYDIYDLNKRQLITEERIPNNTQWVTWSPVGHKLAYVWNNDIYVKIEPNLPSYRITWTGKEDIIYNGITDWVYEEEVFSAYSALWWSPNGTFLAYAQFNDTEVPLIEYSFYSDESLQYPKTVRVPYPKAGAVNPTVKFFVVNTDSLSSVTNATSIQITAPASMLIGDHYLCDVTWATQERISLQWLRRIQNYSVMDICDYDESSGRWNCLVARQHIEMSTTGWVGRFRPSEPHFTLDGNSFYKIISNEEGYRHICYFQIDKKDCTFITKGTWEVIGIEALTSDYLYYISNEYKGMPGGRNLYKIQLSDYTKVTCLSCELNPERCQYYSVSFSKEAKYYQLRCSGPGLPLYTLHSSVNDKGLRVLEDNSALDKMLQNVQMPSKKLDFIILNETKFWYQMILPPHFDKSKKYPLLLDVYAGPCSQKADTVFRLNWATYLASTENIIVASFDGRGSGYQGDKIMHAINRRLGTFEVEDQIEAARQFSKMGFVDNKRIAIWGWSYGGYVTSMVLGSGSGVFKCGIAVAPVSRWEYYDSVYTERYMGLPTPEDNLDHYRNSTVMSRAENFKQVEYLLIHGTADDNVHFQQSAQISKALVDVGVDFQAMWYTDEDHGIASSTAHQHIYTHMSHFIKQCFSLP

Row | SMILES | IC50
1 | COc1ccc2[nH]c(C(=O)N3C[C@H](N)[C@@H](N4CCCCC4=O)C3)cc2c1 [Example 162, 1-[(3S,4S)-4-Amino-1-(5-methoxy-1H-indole-2-carbonyl)-pyrrolidin-3-yl]-piperidin-2-onehydrochloride] | 1460 nM

Same assay, conditions: at 300 nM; n-value given in brackets

Row | SMILES | DPP-IV Percent Inhibition at 300 nM
2 | N[C@H]1CN(c2ncnc3cc(OS(=O)(=O)c4ccc(F)cc4)ccc23)C[C@@H]1N1CCCCC1=O [Example 142, 4-Fluoro-benzenesulfonic acid 4-[(3S,4S)-3-amino-4-(2-oxo-piperidin-1-yl)-pyrrolidin-1-yl]-quinazolin-7-ylester] | 47/3%(4)

Same assay, conditions: at 300 nM; n-value given in brackets; read-out: DPP-IV Percent Inhibition at 300 nM

Row | SMILES | inhibition at 0.3 µM
3 | N[C@H]1CN(c2cc(OCC(F)(F)C(F)F)ncn2)C[C@@H]1N1CCCCC1=O [Example 94, 1-((3S,4S)-4-Amino-1-(6-(2,2,3,3-tetrafluoropropoxy)pyrimidin-4-yl)pyrrolidin-3-yl)piperidin-2-one trifluoroacetate] | 23.2%
4 | N[C@H]1CN(c2cc(OC3CCCC3)ncn2)C[C@@H]1N1CCCCC1=O [Example 91, 1-((3S,4S)-4-Amino-1-(6-(cyclopentyloxy)pyrimidin-4-yl)pyrrolidin-3-yl)piperidin-2-onetrifluoroacetate] | 32.2%

Same assay, conditions: n-value given in brackets; read-out: DPP-IV IC50

Row | SMILES | IC50
5 | COc1ccc(-c2cc(N3C[C@H](N)[C@@H](N4CCCCC4=O)C3)ncn2)cn1 [Example 87, 1-{(3S,4S)-4-Amino-1-[6-(6-methoxy-pyridin-3-yl)-pyrimidin-4-yl]pyrrolidin-3-yl}-piperidin-2-one dihydrochloride] | 38.6 nM
6 | N[C@H]1CN(c2cc(N3CCc4ccccc4C3)ncn2)C[C@@H]1N1CCCC1=O [Example 57, 1-((3S,4S)-4-Amino-1-(6-(3,4-dihydroisoquinolin-2(1H)-yl)pyrimidin-4-yl)pyrrolidin-3-yl)pyrrolidin-2-onehydrochloride] | 317 nM
7 | CC(C)c1ccc2c(N3C[C@H](N)[C@@H](N4CCCCC4=O)C3)ncnc2c1 [Example 116, 1-((3S,4S)-4-amino-1-(7-isopropylquinazolin-4-yl)pyrrolidin-3-yl)piperidin-2-one] | 55.9 nM
8 | N#Cc1ccc(Oc2ccc3c(N4C[C@H](N)[C@@H](N5CCCCC5=O)C4)ncnc3c2)nc1 [Example 121, 6-(4-((3S,4S)-3-amino-4-(2-oxopiperidin-1-yl)pyrrolidin-1-yl)quinazolin-7-yloxy)nicotinonitrile] | 183 nM
9 | N[C@H]1CN(c2ncnc3cc(OC4CCC4)ccc23)C[C@@H]1N1CCCCC1=O [Example 125, 1-((3S,4S)-4-amino-1-(7-cyclobutoxyquinazolin-4-yl)pyrrolidin-3-yl)piperidin-2-one] | 101 nM
10 | N[C@H]1CN(c2ncnc3cc(C4CCCC4)ccc23)C[C@@H]1N1CCCCC1=O [Example 111, 1-((3S,4S)-4-amino-1-(7-cyclopentylquinazolin-4-yl)pyrrolidin-3-yl)piperidin-2-one] | 228 nM
11 | N[C@H]1CN(c2cc(-c3ccccc3)ncn2)C[C@@H]1N1CCCCC1=O [Example 7, 1-((3S,4S)-4-Amino-1-(6-phenylpyrimidin-4-yl)pyrrolidin-3-yl)piperidin-2-one hydrochloride] | 47.4 nM
12 | N[C@H]1CN(c2ncnc(N3CCC(F)(F)C3)c2F)C[C@@H]1N1CCCCC1=O [Example 21, 1-((3S,4S)-4-amino-1-(6-(3,3-difluoropyrrolidin-1-yl)-5-fluoropyrimidin-4-yl)pyrrolidin-3-yl)piperidin-2-one] | 218 nM
13 | N[C@H]1CN(c2cc(N3CC(F)C3)ncn2)C[C@@H]1N1CCCC1=O [Example 48, 1-((3S,4S)-4-Amino-1-(6-(3-fluoroazetidin-1-yl)pyrimidin-4-yl)pyrrolidin-3-yl)pyrrolidin-2-onedihydrochloride] | 1740 nM
14 | COc1ccc(Oc2ccc3c(N4C[C@H](N)[C@@H](N5CCCCC5=O)C4)ncnc3c2)cc1 [Example 129, 1-((3S,4S)-4-amino-1-(7-(4-methoxyphenoxy)quinazolin-4-yl)pyrrolidin-3-yl)piperidin-2-one] | 61.5 nM
15 | CS(=O)(=O)c1ccccc1S(=O)(=O)Oc1ccc2c(N3C[C@H](N)[C@@H](N4CC(F)(F)CCC4=O)C3)ncnc2c1 [Example 97, 4-((3S,4S)-3-amino-4-(5,5-difluoro-2-oxopiperidin-1-yl)pyrrolidin-1-yl)quinazolin-7-yl 2-(methylsulfonyl)benzenesulfonate] | < 1 nM
16 | N[C@H]1CN(c2ncnc3c(F)cccc23)C[C@@H]1N1CCCCC1=O [Example 109, 1-((3S,4S)-Amino-1-(8-fluoroquinazolin-4-yl)pyrrolidin-3-yl)piperidin-2-one trifluoroacetate] | 110 nM
17 | COc1ccc2c(N3C[C@H](N)[C@@H](N4CCCCC4=O)C3)ncnc2c1 [Example 103, 1-[(3S,4S)-4-Amino-1-(7-methoxy-quinazolin-4-yl)-pyrrolidin-3-yl]-piperidin-2-one hydrochloride] | 26.1 nM
18 | N[C@H]1CN(c2cc(NC3CC3)ncn2)C[C@@H]1N1CCCCC1=O [Example 73, 1-[(3S,4S)-4-Amino-1-(6-cyclopropylamino-pyrimidin-4-yl)-pyrrolidin-3-yl]-piperidin-2-onedihydrochloride] | 74.2 nM
19 | CC(=O)N[C@H]1CCN(c2ncnc(N3C[C@H](N)[C@@H](N4CCCCC4=O)C3)n2)C1 [Example 41, N-((S)-1-{4-[(3S,4S)-3-Amino-4-(2-oxo-piperidin-1-yl)-pyrrolidin-1-yl]-[1,3,5]triazin-2-yl}-pyrrolidin-3-yl)-acetamidetrifluoroacetate] | 90 nM
20 | N[C@H]1CN(c2cc(-c3ccccc3)ncn2)C[C@@H]1N1CCCC1=O [Example 6, 1-((3S,4S)-4-Amino-1-(6-phenylpyrimidin-4-yl)pyrrolidin-3-yl)pyrrolidin-2-one dihydrochloride] | 488 nM
21 | N[C@H]1CN(c2cc(N3CCc4nocc4C3)nc(C(F)(F)F)n2)C[C@@H]1N1CCCCC1=O [Example 78, 1-((3S,4S)-4-amino-1-(6-(6,7-dihydroisoxazolo[4,3-c]pyridin-5(4H)-yl)-2-(trifluoromethyl)pyrimidin-4-yl)pyrrolidin-3-yl)piperidin-2-one] | 39.4 nM
22 | N[C@H]1CN(c2ncnc(-c3ccccc3)n2)C[C@@H]1N1CC(F)(F)CCC1=O [Example 84, 1-((3S,4S)-4-amino-1-(4-phenyl-1,3,5-triazin-2-yl)pyrrolidin-3-yl)-5,5-difluoropiperidin-2-one trifluoroacetate] | 38.7 nM
23 | CC(C)Oc1ccc2c(N3C[C@H](N)[C@@H](N4CC(F)(F)CCC4=O)C3)ncnc2c1 [Example 100, 1-((3S,4S)-4-amino-1-(7-isopropoxyquinazolin-4-yl)pyrrolidin-3-yl)-5,5-difluoropiperidin-2-one] | 44.7 nM
24 | N[C@H]1CN(c2ncnc3c2ncn3CC(F)(F)F)C[C@@H]1N1CCCCC1=O [Example 149, 1-{(2S,4S)-4-Amino-1-[9-(2,2,2-trifluoro-ethyl)-9H-purin-6-yl]-pyrrolidin-3-yl}-piperidin-2-onehydrochloride] | 497 nM
25 | N[C@H]1CN(c2cc(N3CCc4sccc4C3)ncn2)C[C@@H]1N1CCCC1=O [Example 65, 1-((3S,4S)-4-Amino-1-(6-(6,7-dihydrothieno[3,2-c]pyridin-5(4H)-yl)pyrimidin-4-yl)pyrrolidin-3-yl)pyrrolidin-2-onehydrochloride] | 547 nM
26 | CS(=O)(=O)Oc1ccc2c(N3C[C@H](N)[C@@H](N4CCCCC4=O)C3)ncnc2c1 [Example 135, 4-((3S,4S)-3-amino-4-(2-oxopiperidin-1-yl)pyrrolidin-1-yl)quinazolin-7-yl methanesulfonate] | 128 nM
27 | N[C@H]1CN(c2cc(NC3CC3)ncn2)C[C@@H]1N1CCCC1=O [Example 74, 1-((3S,4S)-4-Amino-1-(6-cyclopropylamino-pyrimidin-4-yl)pyrrolidin-3-yl)pyrrolidin-2-onetrihydrochloride] | 1400 nM
28 | N[C@H]1CN(c2cc(N3CCc4ncsc4C3)ncn2)C[C@@H]1N1CCCC1=O [Example 62, 1-((3S,4S)-4-Amino-1-(6-(6,7-dihydrothiazolo[5,4-c]pyridin-5(4H)-yl)pyrimidin-4-yl)pyrrolidin-3-yl)pyrrolidin-2-onedihydrochloride] | 640 nM
29 | N[C@H]1CN(c2ncnc3cc(Oc4ccc(F)cc4)ccc23)C[C@@H]1N1CCCCC1=O [Example 128, 1-((3S,4S)-4-amino-1-(7-(4-fluorophenoxy)quinazolin-4-yl)pyrrolidin-3-yl)piperidin-2-one] | 222 nM
30 | CCSc1ccc2c(N3C[C@H](N)[C@@H](N4CC(F)(F)CCC4=O)C3)ncnc2c1 [Example 99, 1-((3S,4S)-4-amino-1-(7-(ethylthio)quinazolin-4-yl)pyrrolidin-3-yl)-5,5-difluoropiperidin-2-one] | 38.4 nM
31 | CO[C@H]1CCN(c2ncnc(N3C[C@H](N)[C@@H](N4CCCCC4=O)C3)n2)C1 [Example 40, 1-((3S,4S)-4-Amino-1-(4-((S)-3-methoxypyrrolidin-1-yl)-1,3,5-triazin-2-yl)pyrrolidin-3-yl)piperidin-2-onetrifluoroacetate] | 566 nM
32 | N[C@H]1CN(c2ncnc(N3CC[C@@H](NC(=O)C(F)(F)F)C3)n2)C[C@@H]1N1CCCCC1=O [Example 42, N-((R)-1-(4-((3S,4S)-3-Amino-4-(2-oxopiperidin-1-yl)pyrrolidin-1-yl)-1,3,5-triazin-2-yl)pyrrolidin-3-yl)-2,2,2-trifluoroacetamidetrifluoroacetate] | 80 nM
33 | N[C@H]1CN(c2cc(N3CCC(F)(F)C3)ncn2)C[C@@H]1N1CCCC1=O [Example 12, 1-((3S,4S)-4-Amino-1-(6-(3,3-difluoropyrrolidin-1-yl)pyrimidin-4-yl)pyrrolidin-3-yl)pyrrolidin-2-onedihydrochloride] | 522 nM
34 | N[C@H]1CN(c2cc(N3Cc4ccc(C(F)(F)F)cc4C3)ncn2)C[C@@H]1N1CCCCC1=O [Example 53, 1-((3S,4S)-4-amino-1-(6-(5-(trifluoromethyl)isoindolin-2-yl)pyrimidin-4-yl)pyrrolidin-3-yl)piperidin-2-onetrifluoroacetate] | 92.4 nM
